Results reported in paper PMC5218480 (PLoS ONE, 2017).

Test system: MV-4-11 cells
Experiment: Gene expression microarray analysis (Affymetrix PrimeView) and GSEA
Assay type: cell-based, human
Parameters: RFU PODN (11730768_x_at) / Fold change /veh PODN (11730768_x_at) / RFU LINC00158 (11744669_a_at) / Fold change /veh LINC00158 (11744669_a_at) / RFU DUSP10 (11751237_a_at) / Fold change /veh DUSP10 (11751237_a_at) / RFU ID3 (11757404_x_at) / Fold change /veh ID3 (11757404_x_at) / RFU PLEKHG5 (11737974_s_at) / Fold change /veh PLEKHG5 (11737974_s_at) / RFU LRRC4B (11730491_at) / Fold change /veh LRRC4B (11730491_at) / RFU GIMAP4 (11747438_a_at) / Fold change /veh GIMAP4 (11747438_a_at) / RFU KRT8 (11758183_x_at) / Fold change /veh KRT8 (11758183_x_at) / RFU CNN1 (11734310_a_at) / Fold change /veh CNN1 (11734310_a_at) / RFU VPS37D (11726825_at) / Fold change /veh VPS37D (11726825_at) / RFU C10orf10 (11716522_x_at) / Fold change /veh C10orf10 (11716522_x_at) / RFU KIR2DL2 /// KIR2DL4 /// KIR2DL5A /// KIR2DL5B /// KIR2DS1 /// KIR2DS2 /// KIR2DS3 /// KIR2DS4 /// KIR3DL3 /// KIR3DL3 /// KIR3DS1 (11738374_at) / Fold change /veh KIR2DL2 /// KIR2DL4 /// KIR2DL5A /// KIR2DL5B /// KIR2DS1 /// KIR2DS2 /// KIR2DS3 /// KIR2DS4 /// KIR3DL3 /// KIR3DL3 /// KIR3DS1 (11738374_at) / RFU C1QL1 (11718748_at) / Fold change /veh C1QL1 (11718748_at) / RFU TMPRSS4 (11747572_a_at) / Fold change /veh TMPRSS4 (11747572_a_at) / RFU HAMP (11756126_x_at) / Fold change /veh HAMP (11756126_x_at) / RFU RNFT2 (11725882_a_at) / Fold change /veh RNFT2 (11725882_a_at) / RFU NR4A2 (11747474_a_at) / Fold change /veh NR4A2 (11747474_a_at) / RFU ABCC12 (11746883_a_at) / Fold change /veh ABCC12 (11746883_a_at) / RFU TMEM136 (11760407_x_at) / Fold change /veh TMEM136 (11760407_x_at) / RFU CLDN22 /// WWC2 (11732394_at) / Fold change /veh CLDN22 /// WWC2 (11732394_at) / RFU HLA-DPB1 (11760878_x_at) / Fold change /veh HLA-DPB1 (11760878_x_at) / RFU SPINT1 (11716480_a_at) / Fold change /veh SPINT1 (11716480_a_at) / RFU GAP43 (11754022_s_at) / Fold change /veh GAP43 (11754022_s_at) / RFU A4GNT (11735810_at) / Fold change /veh A4GNT (11735810_at) / RFU PRB3 (11715151_x_at) / Fold change /veh PRB3 (11715151_x_at) / RFU TUBB4B (11761932_at) / Fold change /veh TUBB4B (11761932_at) / RFU CAPN14 (11732068_a_at) / Fold change /veh CAPN14 (11732068_a_at) / RFU TMCC2 (11721928_a_at) / Fold change /veh TMCC2 (11721928_a_at) / RFU IRGQ (11745062_a_at) / Fold change /veh IRGQ (11745062_a_at) / RFU FAM174B (11720279_a_at) / Fold change /veh FAM174B (11720279_a_at) / RFU TMPRSS4 (11748680_a_at) / Fold change /veh TMPRSS4 (11748680_a_at) / RFU FAM212B (11763350_a_at) / Fold change /veh FAM212B (11763350_a_at) / RFU PLEKHG5 (11743358_a_at) / Fold change /veh PLEKHG5 (11743358_a_at) / RFU ZSCAN30 (11745921_a_at) / Fold change /veh ZSCAN30 (11745921_a_at) / RFU CMKLR1 (11741424_a_at) / Fold change /veh CMKLR1 (11741424_a_at) / RFU LOC101060620 /// MAPK8IP1 (11723275_at) / Fold change /veh LOC101060620 /// MAPK8IP1 (11723275_at) / RFU SPTSSB (11747773_x_at) / Fold change /veh SPTSSB (11747773_x_at) / RFU PRSS12 (11739890_at) / Fold change /veh PRSS12 (11739890_at) / RFU BIN1 (11741810_x_at) / Fold change /veh BIN1 (11741810_x_at) / RFU WNT11 (11732464_a_at) / Fold change /veh WNT11 (11732464_a_at) / RFU C10orf10 (11716521_a_at) / Fold change /veh C10orf10 (11716521_a_at) / RFU C5orf56 (11738089_at) / Fold change /veh C5orf56 (11738089_at) / RFU CYB561 (11721691_x_at) / Fold change /veh CYB561 (11721691_x_at) / RFU ANKRD19P (11752326_a_at) / Fold change /veh ANKRD19P (11752326_a_at) / RFU OR2T12 /// OR2T33 /// OR2T8 (11738714_s_at) / Fold change /veh OR2T12 /// OR2T33 /// OR2T8 (11738714_s_at) / RFU VCAN (11748164_a_at) / Fold change /veh VCAN (11748164_a_at) / RFU JSRP1 (11732532_at) / Fold change /veh JSRP1 (11732532_at) / RFU KRTAP10-11 (11738290_x_at) / Fold change /veh KRTAP10-11 (11738290_x_at) / RFU MYO3A (11730013_a_at) / Fold change /veh MYO3A (11730013_a_at) / RFU EBF3 (11725865_a_at) / Fold change /veh EBF3 (11725865_a_at) / RFU CAMK2N1 (11719241_x_at) / Fold change /veh CAMK2N1 (11719241_x_at) / RFU C5orf56 (11738088_a_at) / Fold change /veh C5orf56 (11738088_a_at) / RFU OLFML3 (11715873_a_at) / Fold change /veh OLFML3 (11715873_a_at) / RFU LOC100653217 /// NTM (11731650_a_at) / Fold change /veh LOC100653217 /// NTM (11731650_a_at) / RFU MAPK11 (11762145_a_at) / Fold change /veh MAPK11 (11762145_a_at) / RFU FIZ1 (11724087_x_at) / Fold change /veh FIZ1 (11724087_x_at) / RFU OASL (11726364_x_at) / Fold change /veh OASL (11726364_x_at) / RFU SOX15 (11748057_x_at) / Fold change /veh SOX15 (11748057_x_at) / RFU CD79A (11719716_a_at) / Fold change /veh CD79A (11719716_a_at) / RFU HIST1H1D (11736915_at) / Fold change /veh HIST1H1D (11736915_at) / RFU CASKIN2 (11723855_a_at) / Fold change /veh CASKIN2 (11723855_a_at) / RFU LOC730098 (11760151_x_at) / Fold change /veh LOC730098 (11760151_x_at) / RFU OR4N2 (11742367_at) / Fold change /veh OR4N2 (11742367_at) / RFU PRRT2 (11749266_a_at) / Fold change /veh PRRT2 (11749266_a_at) / RFU SNX32 (11753110_a_at) / Fold change /veh SNX32 (11753110_a_at) / RFU CDHR5 (11726645_a_at) / Fold change /veh CDHR5 (11726645_a_at) / RFU RCAN1 (11760418_a_at) / Fold change /veh RCAN1 (11760418_a_at) / RFU FAM167A (11723789_a_at) / Fold change /veh FAM167A (11723789_a_at) / RFU FAM26E (11764081_at) / Fold change /veh FAM26E (11764081_at) / RFU ISYNA1 (11749810_s_at) / Fold change /veh ISYNA1 (11749810_s_at) / RFU ACY1 (11761880_at) / Fold change /veh ACY1 (11761880_at) / RFU 11764098_at / Fold change /veh 11764098_at / RFU SAMD14 (11745864_x_at) / Fold change /veh SAMD14 (11745864_x_at) / RFU NPB (11741838_a_at) / Fold change /veh NPB (11741838_a_at) / RFU TMPRSS6 (11731388_a_at) / Fold change /veh TMPRSS6 (11731388_a_at) / RFU KRTAP10-2 (11738614_at) / Fold change /veh KRTAP10-2 (11738614_at) / RFU ARHGAP8 /// PRR5-ARHGAP8 (11727945_x_at) / Fold change /veh ARHGAP8 /// PRR5-ARHGAP8 (11727945_x_at) / RFU KRTAP5-7 /// NADSYN1 (11734609_at) / Fold change /veh KRTAP5-7 /// NADSYN1 (11734609_at) / RFU RASL12 (11751679_a_at) / Fold change /veh RASL12 (11751679_a_at) / RFU CDKN2B (11736163_a_at) / Fold change /veh CDKN2B (11736163_a_at) / RFU PRF1 (11729649_at) / Fold change /veh PRF1 (11729649_at) / RFU, ZNF638 /// ZNF638-IT1 / Fold change vs veh, ZNF638 /// ZNF638-IT1 / RFU, PANK3 / Fold change vs veh, PANK3 / RFU, SH3YL1 / Fold change vs veh, SH3YL1 / RFU, ZEB2 / Fold change vs veh, ZEB2 / RFU, NRIP1 / Fold change vs veh, NRIP1 / RFU, PTTG1IP / Fold change vs veh, PTTG1IP / RFU, CAPN2 / Fold change vs veh, CAPN2 / RFU, MED14 / Fold change vs veh, MED14 / RFU, SNORA58 / Fold change vs veh, SNORA58 / RFU, C1orf63 / Fold change vs veh, C1orf63 / RFU, LRRFIP1 / Fold change vs veh, LRRFIP1 / RFU, NDUFAF7 / Fold change vs veh, NDUFAF7 / RFU, SLC12A2 / Fold change vs veh, SLC12A2 / RFU, IBTK / Fold change vs veh, IBTK / RFU, ESF1 / Fold change vs veh, ESF1 / Fold change vs veh, TMEM50B / RFU, TAOK1 / Fold change vs veh, TAOK1 / RFU, ACBD3 / Fold change vs veh, ACBD3 / RFU, TMA16 / Fold change vs veh, TMA16 / RFU, RWDD3 / Fold change vs veh, RWDD3 / RFU, BCAT1 / Fold change vs veh, BCAT1 / RFU, EDEM3 / Fold change vs veh, EDEM3 / RFU, TMEM33 / Fold change vs veh, TMEM33 / RFU, WDR75 / Fold change vs veh, WDR75 / RFU, AHCTF1 / Fold change vs veh, AHCTF1 / RFU, TFRC / Fold change vs veh, TFRC / RFU, ZDHHC17 / Fold change vs veh, ZDHHC17 / RFU, NOM1 / Fold change vs veh, NOM1 / RFU, ARL8B / Fold change vs veh, ARL8B / RFU, ZBTB11 / Fold change vs veh, ZBTB11 / RFU, TAMM41 / Fold change vs veh, TAMM41 / RFU, KIAA1704 /// LOC100996395 / Fold change vs veh, KIAA1704 /// LOC100996395 / RFU, ING1 / Fold change vs veh, ING1 / RFU, TRMT61B / Fold change vs veh, TRMT61B / RFU, FUBP3 / Fold change vs veh, FUBP3 / RFU, TP53 / Fold change vs veh, TP53 / RFU, TNKS2 / Fold change vs veh, TNKS2 / RFU, ZFP14 / Fold change vs veh, ZFP14 / RFU, ACTR2 / Fold change vs veh, ACTR2 / RFU, PPP3R1 / Fold change vs veh, PPP3R1 / RFU, PIK3R1 / Fold change vs veh, PIK3R1 / RFU, HNRNPA1 / Fold change vs veh, HNRNPA1 / RFU, RNF170 / Fold change vs veh, RNF170 / RFU, ZNF28 / Fold change vs veh, ZNF28 / RFU, RNGTT / Fold change vs veh, RNGTT / RFU, OGT / Fold change vs veh, OGT / RFU, BRD1 / Fold change vs veh, BRD1 / RFU, MARS / Fold change vs veh, MARS / RFU, ZNF655 / Fold change vs veh, ZNF655 / RFU, FAHD1 / Fold change vs veh, FAHD1 / RFU, BDP1 / Fold change vs veh, BDP1 / RFU, LRRCC1 / Fold change vs veh, LRRCC1 / RFU, ARID1A / Fold change vs veh, ARID1A / RFU, ZNF146 / Fold change vs veh, ZNF146 / RFU, ZNF330 / Fold change vs veh, ZNF330 / RFU, GPN3 / Fold change vs veh, GPN3 / RFU, C9orf123 / Fold change vs veh, C9orf123 / RFU, N4BP2L2 / Fold change vs veh, N4BP2L2 / RFU, ARFIP1 / Fold change vs veh, ARFIP1 / RFU, FAM179B / Fold change vs veh, FAM179B / RFU, BCL10 / Fold change vs veh, BCL10 / RFU, UHRF1BP1L / Fold change vs veh, UHRF1BP1L / RFU, BET1 / Fold change vs veh, BET1 / RFU, CNOT2 / Fold change vs veh, CNOT2 / RFU, ZNF268 / Fold change vs veh, ZNF268 / Fold change vs veh, ZNF507 / RFU, DGCR2 / Fold change vs veh, DGCR2 / RFU, WDSUB1 / Fold change vs veh, WDSUB1 / Fold change vs veh, HSP90B1 /// MIR3652 / RFU, ADSS / Fold change vs veh, ADSS / RFU, GK / Fold change vs veh, GK / RFU, ZNF148 / Fold change vs veh, ZNF148 / RFU, TAF9 / Fold change vs veh, TAF9 / RFU, SLC1A5 / Fold change vs veh, SLC1A5 / RFU, SLMO2 / Fold change vs veh, SLMO2 / RFU, ABCC4 / Fold change vs veh, ABCC4 / RFU, LOC101060439 /// RAP1B / Fold change vs veh, LOC101060439 /// RAP1B / RFU, RFX7 / Fold change vs veh, RFX7 / RFU, GTPBP10 / Fold change vs veh, GTPBP10 / RFU, CNEP1R1 / Fold change vs veh, CNEP1R1 / RFU, BIVM-ERCC5 /// ERCC5 / Fold change vs veh, BIVM-ERCC5 /// ERCC5 / RFU, ILF3 / Fold change vs veh, ILF3 / RFU 11762660_at / Fold change /veh 11762660_at / RFU VCAN (11757783_s_at) / Fold change /veh VCAN (11757783_s_at) / RFU DDX43 (11728927_at) / Fold change /veh DDX43 (11728927_at) / RFU KRT8 (11758188_x_at) / Fold change /veh KRT8 (11758188_x_at) / RFU NKD1 (11759106_at) / Fold change /veh NKD1 (11759106_at) / RFU SRD5A1 (11742802_a_at) / Fold change /veh SRD5A1 (11742802_a_at) / RFU TPSAB1 /// TPSB2 (11721975_s_at) / Fold change /veh TPSAB1 /// TPSB2 (11721975_s_at) / RFU GSTM3 (11746129_a_at) / Fold change /veh GSTM3 (11746129_a_at) / RFU IL23R (11737362_x_at) / Fold change /veh IL23R (11737362_x_at) / RFU TMEM51 (11727254_a_at) / Fold change /veh TMEM51 (11727254_a_at) / RFU PIWIL2 (11732686_x_at) / Fold change /veh PIWIL2 (11732686_x_at) / RFU ORM1 (11744905_x_at) / Fold change /veh ORM1 (11744905_x_at) / RFU CCDC152 (11743942_at) / Fold change /veh CCDC152 (11743942_at) / RFU ECM1 (11717891_a_at) / Fold change /veh ECM1 (11717891_a_at) / RFU IL23R (11748794_a_at) / Fold change /veh IL23R (11748794_a_at) / RFU TNFAIP8L3 (11732012_x_at) / Fold change /veh TNFAIP8L3 (11732012_x_at) / RFU MBOAT4 (11741988_at) / Fold change /veh MBOAT4 (11741988_at) / RFU 11764193_at / Fold change /veh 11764193_at / RFU TMEM53 (11763286_at) / Fold change /veh TMEM53 (11763286_at) / RFU MAGEB2 (11727129_at) / Fold change /veh MAGEB2 (11727129_at) / RFU TMEM200A (11744735_a_at) / Fold change /veh TMEM200A (11744735_a_at) / RFU CCDC152 (11751479_a_at) / Fold change /veh CCDC152 (11751479_a_at) / RFU FAM211A (11726209_a_at) / Fold change /veh FAM211A (11726209_a_at) / RFU RGS16 (11746705_a_at) / Fold change /veh RGS16 (11746705_a_at) / RFU VCAN (11755009_s_at) / Fold change /veh VCAN (11755009_s_at) / RFU RHOB (11743442_s_at) / Fold change /veh RHOB (11743442_s_at) / RFU RGS16 (11720943_a_at) / Fold change /veh RGS16 (11720943_a_at) / RFU RGS16 (11720944_at) / Fold change /veh RGS16 (11720944_at) / RFU, VPS4B / Fold change vs veh, VPS4B / RFU, CREB1 / Fold change vs veh, CREB1 / RFU, DNAJC13 / Fold change vs veh, DNAJC13 / RFU, GNAQ / Fold change vs veh, GNAQ / RFU, CDK5R1 / Fold change vs veh, CDK5R1 / RFU, ZRANB3 / Fold change vs veh, ZRANB3 / RFU, CUL4A / Fold change vs veh, CUL4A / RFU, CCNY / Fold change vs veh, CCNY / RFU, UFL1 / Fold change vs veh, UFL1 / RFU, COG3 / Fold change vs veh, COG3 / RFU, DIAPH2 / Fold change vs veh, DIAPH2 / RFU, SKA2 / Fold change vs veh, SKA2 / RFU, AFF3 / Fold change vs veh, AFF3 / RFU, LMF1 / Fold change vs veh, LMF1 / RFU, IPO11 / Fold change vs veh, IPO11 / RFU, DFFB / Fold change vs veh, DFFB / RFU, FOXP1 / Fold change vs veh, FOXP1 / RFU, CARD8 / Fold change vs veh, CARD8 / RFU, STRN3 / Fold change vs veh, STRN3 / RFU, ADK / Fold change vs veh, ADK / RFU, RASSF2 / Fold change vs veh, RASSF2 / RFU, WIPF1 / Fold change vs veh, WIPF1 / RFU, LARP1B / Fold change vs veh, LARP1B / RFU, RASA1 / Fold change vs veh, RASA1 / RFU, RB1 / Fold change vs veh, RB1 / RFU, PPFIA1 / Fold change vs veh, PPFIA1 / RFU, MAT2A / Fold change vs veh, MAT2A / RFU, CCT5 / Fold change vs veh, CCT5 / RFU, WDR92 / Fold change vs veh, WDR92 / RFU, CUX1 / Fold change vs veh, CUX1 / RFU, TTC7A / Fold change vs veh, TTC7A / RFU, TMEM135 / Fold change vs veh, TMEM135 / RFU, DEPTOR / Fold change vs veh, DEPTOR / RFU, CPM / Fold change vs veh, CPM / RFU, DNAJB6 / Fold change vs veh, DNAJB6 / RFU, CACNA2D3 / Fold change vs veh, CACNA2D3 / RFU, DTX4 / Fold change vs veh, DTX4 / RFU, TFCP2 / Fold change vs veh, TFCP2 / RFU, GMCL1 /// GMCL1P1 / Fold change vs veh, GMCL1 /// GMCL1P1 / RFU, AEBP2 / Fold change vs veh, AEBP2 / RFU, SNHG1 /// SNORD22 /// SNORD25 /// SNORD26 /// SNORD27 /// SNORD28 /// SNORD29 /// SNORD31 / Fold change vs veh, SNHG1 /// SNORD22 /// SNORD25 /// SNORD26 /// SNORD27 /// SNORD28 /// SNORD29 /// SNORD31 / Fold change (Aza/veh), C12orf56 (ProbeSet 11735607_a_at) / Fold change (ACY-1035/veh), C12orf56 (ProbeSet 11735607_a_at) / Fold change (Aza/veh), FGFR1OP (ProbeSet 11751329_s_at) / Fold change (ACY-1035/veh), FGFR1OP (ProbeSet 11751329_s_at) / Fold change (Aza/veh), VPS36 (ProbeSet 11739960_a_at) / Fold change (ACY-1035/veh), VPS36 (ProbeSet 11739960_a_at) / RFU SYPL1 (11715823_x_at) / Fold change /veh SYPL1 (11715823_x_at) / RFU IGFBP7 (11715501_s_at) / Fold change /veh IGFBP7 (11715501_s_at) / RFU REEP3 (11722064_at) / Fold change /veh REEP3 (11722064_at) / RFU IGLL1 (11728026_x_at) / Fold change /veh IGLL1 (11728026_x_at): dose or concentration left out as unconfirmed
Settings: ProbeSet 11716891_at; LIST B

SMILES: Nc1ncn([C@@H]2O[C@H](CO)[C@@H](O)[C@H]2O)c(=O)n1 [azacitidine]
- RFU, C9orf123: 42.83 RFU
